Values quoted from earlier work as cited in patent US11576377B2, “Antimicrobial mixtures of an essential oil derived bactericide and an essential oil derived fungicide which extend the shelf-life of perishable agricultural commodities” (priority 2013, dated 2023).

How the values were obtained:
[1] = test system: peaches; conditions: Mari et al. 2008
[2] = test system: cherry stem; conditions: Tsao and Zhou, 2000

Structure (SMILES)	Phytotoxic effect on peaches [1]	Phytotoxic effect on cherry stem [2]
C=CCN=C=S [allyl isothiocyanate]	causes discoloration of peaches	
Cc1ccc(C(C)C)c(O)c1 [thymol]		causes browning of cherry stem
